The results in this text go back to patent publication US8906906B2, “Viral replication inhibitors” (Katholieke Universiteit Leuven, priority 2009, dated 2014).

As usually defined, the IC50 is the point on the concentration scale where inhibition reaches its midpoint. High values mean lower potency, low ones higher potency. A word on the EC50: it is the midpoint of the concentration-response curve. Read a high EC50 as weaker potency. A word on the CC50: it is the concentration giving 50% cytotoxicity.

Series [1] deals with T1, His6-tagged HIV-1 integrase / flag-LEDGF/p75 interaction (Human immunodeficiency virus type 1 group M subtype B, UniProt P04585).
T1 construct: His6-tagged HIV-1 integrase; made in house
Put plainly: AlphaScreen assay of LEDGF-integrase interaction inhibition. It counts as binding. The settings on record: compounds tested from 0.1 up to 100 μM. On the procedure: Alphascreen Assay to Measure the LEDGF-Integrase Interaction Inhibitory Activity of Compounds of the Invention
The AlphaScreen assay was performed according to the manufacturer's protocol (Perkin Elmer, Benelux). Reactions were performed in 25 μl final volume in 384-well Optiwell™ microtiter plates (Perkin Elmer). The reaction buffer contained 25 mM Tris-HCl (pH 7.4), 150 mM NaCl, 1 mM MgCl2, 0.01% (v/v) Tween-20 and 0.1% (w/v) bovine serum albumin. His6-tagged integrase (300 nM final concentration) was incubated with the compounds for 30 min at 4° C. The compounds were added at varying concentrations spanning a wide range from 0.1 up to 100 μM. Afterwards 100 nM flag-LEDGF/p75 was added and incubation was prolonged for an additional hour at 4° C. Subsequently 5 μl of Ni-chelate-coated acceptor beads and 5 μl anti-flag donor beads were added to a final concentration of 20 μg/ml of both beads. Proteins and beads were incubated for 1 h at 30° C. in order to allow association to occur. Exposure of the reaction to direct light was omitted as much as possible and the emission of light from the acceptor beads was measured in the EnVision plate reader (Perkin Elmer, Benelux) and analyzed using the EnVision manager software. IN/DNA binding was analyzed in a similar setting using His6-tagged integrase (1 μM final concentration) and an oligodeoxynucleotide mimicking the IN ELISA oligonucleotide substrate (30 nM final concentration). Counterscreens with JPO2 or PogZ, respectively, were essentially performed as described previously.
Expression and purification of recombinant proteins: His6-tagged HIV-1 integrase, 3×flag-tagged LEDGF/p75, MBP-JPO2 and MBP-PogZ were purified for AlphaScreen applications as described previously 23,25,56.
(Alpha assays give light when donor and acceptor beads are brought close together.)

The subject of series [2] is HIV (MT4-IIIB). Nature of the series: Anti-HIV activity: inhibition of HIV-induced cytopathogenic effect in MT-4 cells (MTT). It counts as cell-based. The settings on record: Human immunodeficiency virus 1, IIIB. On the technique in general: Protection from cytopathic effect is a common read-out in antiviral testing.
A short description of series [3]: Cytotoxicity in mock-infected MT-4 cells (MTT). The settings on record: human, read-out: CC50 in MT4-IIIB (μm). In kind it is cell-based. On the procedure:
A rapid and automated assay procedure was used for the in vitro evaluation of anti-HIV agents. An HTLV-1 transformed T4-cell line MT-4, which was previously shown to be highly susceptible to and permissive for HIV infection, served as the target cell line. Inhibition of the HIV-induced cytopathogenic effect was used as the end point. The viability of both HIV-and mock-infected cells was assessed spectrophotometrically via in situ reduction of 3-(4,5-dimethylthiazol-2-yl)-2,5-diphenyltetrazolium bromide (MTT). The 50% cytotoxic concentration (CC50 in μg/ml) was defined as the concentration of compound that reduced the absorbance of the mock-infected control sample by 50%. The percent protection achieved by the compound in HIV-infected cells was calculated by the following formula: […]
Examples of inhibition of cell proliferation by particular compounds of formula (I) can be found by looking at the respective CC50 values in the MT-4 cell line.
Cells: MT-4 cells (Miyoshi et al., 1982) were grown and maintained in RPMI 1640 medium supplemented with 10% heat-inactivated fetal calf serum, 2 mM I-glutamine, 0.1% sodium bicarbonate, and 20 æg of gentamicin per ml.

`CCCC(C(=O)O)c1c(C)nc(N2CCCC(C)C2)nc1-c1ccc(C)cc1` (stereo not drawn) [cpd 40] showed an IC50 in series [1] of 25.1 µM. For the same compound, a half-maximal response in series [2] (EC50) required 24.6 µM. In series [3], the CC50 worked out at 120 µM.

`CCCC(C(=O)O)c1c(C)nc(N2CCCN(CC)CC2)nc1-c1ccc(C)cc1` (stereo not drawn) [cpd 56] came in with an IC50 in series [1] of 73.8 µM. Also, the EC50 in series [2] was 101 µM. Besides, the CC50 in series [3] was over 250 µM.

In turn, `CCCC(C(=O)O)c1c(C)nc(N2CCc3ccccc32)nc1-c1ccc(C)cc1` (stereo not drawn) [cpd 58] returned an IC50 in series [1] of 17.9 µM. This compound showed an EC50 in series [2] of 2.91 µM. The CC50 in series [3] was 38.7 µM.

For `CCCC(C(=O)O)c1c(C)nc(-c2ccccc2)nc1N1CCCCC1` (stereo not drawn) [cpd 60], it took 4.71 µM to reach half-maximal inhibition in series [1] (IC50). In series [2], this compound returned an EC50 of 13.2 µM. Also, in series [3], the CC50 was found to be 61 µM.

In turn, `CCCC(C(=O)O)c1c(C)nc(-c2ccccc2)nc1N1CCCCCC1` (stereo not drawn) [cpd 62] returned an IC50 in series [1] of 6.71 µM. This compound also showed an EC50 in series [2] of 29.8 µM. For the same compound, in series [3], the CC50 is 131 µM.

Compound `CCCC(C(=O)O)c1c(C)nc(-c2ccccc2)nc1-c1ccc2c(c1)CCO2` (stereo not drawn) [cpd 70] displayed an IC50 in series [1] of 14.9 µM. The EC50 in series [2] came out at 42.1 µM. Besides, in series [3], the CC50 turned out to be 90 µM.

The compound `CCCC(C(=O)O)c1c(C)nc(-c2ccccc2)nc1-c1ccc2occc2c1` (stereo not drawn) [cpd 72] came in with an IC50 in series [1] of 14.7 µM. Also, the EC50 in series [2] is 46.3 µM. In addition, in series [3], the CC50 turned out to be 110 µM.

`CCCC(C(=O)O)c1c(C)nc(-c2ccccc2)nc1-c1ccc(Cl)cc1F` (stereo not drawn) [cpd 94] displayed an IC50 in series [1] of 7.25 µM. In addition, in series [2], the EC50 worked out at 19 µM. For the same compound, in series [3], the 50% cytotoxic concentration (CC50) amounted to 81 µM.

Turning to `CCCC(C(=O)O)c1c(C)nc(-c2ccccc2)nc1-c1ccc(C)cc1F` (stereo not drawn) [cpd 98], the midpoint of inhibition in series [1], the IC50, lay at 13.5 µM. In series [2], this compound registered an EC50 of 35.9 µM. For the same compound, the CC50 in series [3] worked out at 113 µM.

In series [1], `CCCC(C(=O)O)c1c(C)nc(-c2ccccc2)nc1-c1ccc(Cl)cc1` (stereo not drawn) [cpd 102] returned an IC50 of 13.4 µM. A half-maximal response in series [2] (EC50) required 13.4 µM. Besides, the CC50 in series [3] turned out to be 143 µM.

In series [1], `CCCC(C(=O)O)c1c(C)nc(-c2ccccc2)nc1-c1ccc(Cl)cc1O` (stereo not drawn) [cpd 111] registered an IC50 of 1.97 µM. In addition, a half-maximal response in series [2] (EC50) required 26.4 µM. Moreover, in series [3], the CC50 amounted to 97 µM.

In series [1], `CCCC(C(=O)O)c1c(C)nc(-c2ccccc2)nc1-c1ccc(C)cc1O` (stereo not drawn) [cpd 119] showed an IC50 of 21.9 µM. This compound yielded an EC50 in series [2] of 29.4 µM. In addition, the CC50 in series [3] stood at 120 µM.

In series [1], `COCCC(C(=O)O)c1c(C)nc(N2CCCCC2)nc1-c1ccc(C)cc1` (stereo not drawn) [cpd 122] registered an IC50 of 59.7 µM. The compound also yielded an EC50 in series [2] of 21.5 µM. Further, the CC50 in series [3] is over 250 µM.

As for `Cc1ccc(-c2nc(N3CCCCC3)nc(C)c2C(CCCC(F)(F)F)C(=O)O)cc1` (stereo not drawn) [cpd 124], in series [1], the IC50 is 19.7 µM. The compound further returned an EC50 in series [2] of 5.3 µM. The CC50 in series [3] turned out to be 124 µM.

The compound `CCCC(C(=O)O)c1c(C)nc(N2CCCCC2)nc1-c1ccc(F)cc1F` (stereo not drawn) [cpd 130] displayed an IC50 in series [1] of 17.4 µM. The compound also returned a half-maximal effective concentration (EC50) in series [2] of 22.7 µM. The CC50 in series [3] is 99 µM.

In the case of `CCCC(C(=O)O)c1c(C)nc(N2CCCCC2)nc1-c1ccc(C)cc1C` (stereo not drawn) [cpd 132], in series [1], the IC50 is 22.9 µM. The compound further registered an EC50 in series [2] of 30.2 µM. The CC50 in series [3] is 84.5 µM.

Turning to `CCCC(C(=O)O)c1c(C)nc(N2CCCCC2)nc1-c1ccc(OC)cc1F` (stereo not drawn) [cpd 136], the midpoint of inhibition in series [1], the IC50, lay at 20.7 µM. In series [2], this compound had an EC50 of 49 µM. Moreover, the CC50 in series [3] stood at 127 µM.

Take `CCCC(C(=O)O)c1c(C)nc(N2CCCCC2)nc1-c1ccc(C)cc1Cl` (stereo not drawn) [cpd 144]: the IC50 in series [1] was 5.92 µM. In series [2], this compound registered an EC50 of 7.93 µM. Moreover, the CC50 in series [3] is 72.5 µM.

Compound `CCCC(C(=O)O)c1c(C)nc(N2CCCCC2)nc1-c1ccc(Cl)cc1F` (stereo not drawn) [cpd 146] came in with an IC50 in series [1] of 10.8 µM. The compound also returned an EC50 in series [2] of 9.38 µM. Further, the CC50 in series [3] was found to be 72 µM.

`CCCC(C(=O)O)c1c(C)nc(N2CCCCC2)nc1N1CCCCC1` (stereo not drawn) [cpd 148] gave an IC50 in series [1] of 34.1 µM. In addition, in series [2], the EC50 is 18.1 µM. For the same compound, the cytotoxic concentration (CC50) in series [3] came out at 138 µM.

In the case of `Cc1ccc(-c2nc(N3CCCCC3)nc(C)c2C(CC(C)(C)C)C(=O)O)cc1` (stereo not drawn) [cpd 152], the IC50 in series [1] worked out at 6.9 µM. Further, in series [2], a half-maximal response (EC50) required 3.48 µM. Further, the cytotoxic concentration (CC50) in series [3] was 72 µM.
